Assay [1] deals with Short transient receptor potential channel 7 (Mus musculus, UniProt Q9WVC5). As to the kind of experiment: Inhibition of YFP-tagged mouse TRPC7 expressed in thapsigargin treated HEK293 cells assessed as reduction in amix-induced calcium level by fluo-4 dye based fluorescence assay. It counts as cell-based.
The target of assay [2] is Heat sensitive channel TRPV3 (Rattus norvegicus, UniProt Q4QYD9). As to the kind of experiment: Inhibition of YFP-tagged rat TRPV3 expressed in HEK293 cells assessed as reduction in calcium level by fluo-4 dye based fluorescence assay. It counts as cell-based.
Heat sensitive channel TRPV3, sequence (Q4QYD9 whole entry): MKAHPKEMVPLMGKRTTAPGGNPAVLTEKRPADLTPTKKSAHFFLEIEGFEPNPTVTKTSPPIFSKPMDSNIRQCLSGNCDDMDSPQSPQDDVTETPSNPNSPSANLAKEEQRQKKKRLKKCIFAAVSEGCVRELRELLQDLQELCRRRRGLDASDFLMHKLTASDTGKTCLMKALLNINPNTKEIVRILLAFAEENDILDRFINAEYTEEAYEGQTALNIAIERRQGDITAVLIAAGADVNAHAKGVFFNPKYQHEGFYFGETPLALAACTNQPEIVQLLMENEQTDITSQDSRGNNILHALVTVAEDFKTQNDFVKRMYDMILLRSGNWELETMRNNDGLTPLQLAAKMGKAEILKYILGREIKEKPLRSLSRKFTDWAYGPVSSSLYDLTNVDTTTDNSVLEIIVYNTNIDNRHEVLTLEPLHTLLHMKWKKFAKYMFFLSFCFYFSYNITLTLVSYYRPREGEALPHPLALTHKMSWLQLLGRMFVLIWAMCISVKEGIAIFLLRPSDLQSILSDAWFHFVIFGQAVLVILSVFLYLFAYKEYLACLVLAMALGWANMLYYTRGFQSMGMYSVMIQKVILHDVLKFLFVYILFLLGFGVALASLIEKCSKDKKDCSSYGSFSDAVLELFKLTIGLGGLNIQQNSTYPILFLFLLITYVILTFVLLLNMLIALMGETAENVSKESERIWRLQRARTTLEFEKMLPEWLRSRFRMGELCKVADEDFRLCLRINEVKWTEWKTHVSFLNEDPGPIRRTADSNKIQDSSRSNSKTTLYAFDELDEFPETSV
Assay [3] concerns the target Transient receptor potential cation channel subfamily V member 4 (Mus musculus, UniProt Q9EPK8). As to the kind of experiment: Inhibition of YFP-tagged mouse TRPV4 expressed in HEK293 cells assessed as reduction in calcium level by fluo-4 dye based fluorescence assay. The assay is classed as cell-based.
Assay [4] has as its target T1, Short transient receptor potential channel 4 (Mus musculus, UniProt Q9QUQ5).
T1 sequence (Q9QUQ5 whole entry): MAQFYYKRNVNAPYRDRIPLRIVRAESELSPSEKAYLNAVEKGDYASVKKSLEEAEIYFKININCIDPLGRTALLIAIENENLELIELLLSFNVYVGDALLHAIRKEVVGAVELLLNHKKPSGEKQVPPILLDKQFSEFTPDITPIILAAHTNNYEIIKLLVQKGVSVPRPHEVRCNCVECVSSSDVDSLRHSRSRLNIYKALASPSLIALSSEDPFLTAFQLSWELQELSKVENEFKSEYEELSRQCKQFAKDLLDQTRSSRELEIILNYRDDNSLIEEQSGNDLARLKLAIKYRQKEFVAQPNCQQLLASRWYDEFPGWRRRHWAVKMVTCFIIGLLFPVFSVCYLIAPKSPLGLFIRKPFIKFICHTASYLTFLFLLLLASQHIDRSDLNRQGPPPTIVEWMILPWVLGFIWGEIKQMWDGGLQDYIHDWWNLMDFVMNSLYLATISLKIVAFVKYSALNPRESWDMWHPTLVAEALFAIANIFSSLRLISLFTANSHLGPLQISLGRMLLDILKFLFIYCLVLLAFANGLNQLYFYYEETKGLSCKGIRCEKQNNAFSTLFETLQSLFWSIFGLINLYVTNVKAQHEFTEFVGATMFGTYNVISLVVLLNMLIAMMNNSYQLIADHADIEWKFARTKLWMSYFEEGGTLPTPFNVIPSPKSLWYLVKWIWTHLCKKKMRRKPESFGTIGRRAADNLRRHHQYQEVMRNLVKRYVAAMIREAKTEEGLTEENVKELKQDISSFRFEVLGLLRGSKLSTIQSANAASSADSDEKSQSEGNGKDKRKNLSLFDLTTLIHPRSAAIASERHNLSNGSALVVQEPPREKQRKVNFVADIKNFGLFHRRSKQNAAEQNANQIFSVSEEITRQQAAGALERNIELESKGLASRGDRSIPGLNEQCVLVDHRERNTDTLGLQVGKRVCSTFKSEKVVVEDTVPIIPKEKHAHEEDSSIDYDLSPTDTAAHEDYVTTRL
As to the kind of experiment: Inhibition of YFP-tagged mouse TRPC4 beta expressed in thapsigargin treated HEK293 cells co-expressing M3 receptor assessed as reduction in carbachol-induced calcium level by fluo-4 dye based fluorescence assay. The assay is classed as cell-based.

Assay [5] deals with T2, Short transient receptor potential channel 5 (Mus musculus, UniProt Q9QX29).
T2 sequence (Q9QX29 whole entry): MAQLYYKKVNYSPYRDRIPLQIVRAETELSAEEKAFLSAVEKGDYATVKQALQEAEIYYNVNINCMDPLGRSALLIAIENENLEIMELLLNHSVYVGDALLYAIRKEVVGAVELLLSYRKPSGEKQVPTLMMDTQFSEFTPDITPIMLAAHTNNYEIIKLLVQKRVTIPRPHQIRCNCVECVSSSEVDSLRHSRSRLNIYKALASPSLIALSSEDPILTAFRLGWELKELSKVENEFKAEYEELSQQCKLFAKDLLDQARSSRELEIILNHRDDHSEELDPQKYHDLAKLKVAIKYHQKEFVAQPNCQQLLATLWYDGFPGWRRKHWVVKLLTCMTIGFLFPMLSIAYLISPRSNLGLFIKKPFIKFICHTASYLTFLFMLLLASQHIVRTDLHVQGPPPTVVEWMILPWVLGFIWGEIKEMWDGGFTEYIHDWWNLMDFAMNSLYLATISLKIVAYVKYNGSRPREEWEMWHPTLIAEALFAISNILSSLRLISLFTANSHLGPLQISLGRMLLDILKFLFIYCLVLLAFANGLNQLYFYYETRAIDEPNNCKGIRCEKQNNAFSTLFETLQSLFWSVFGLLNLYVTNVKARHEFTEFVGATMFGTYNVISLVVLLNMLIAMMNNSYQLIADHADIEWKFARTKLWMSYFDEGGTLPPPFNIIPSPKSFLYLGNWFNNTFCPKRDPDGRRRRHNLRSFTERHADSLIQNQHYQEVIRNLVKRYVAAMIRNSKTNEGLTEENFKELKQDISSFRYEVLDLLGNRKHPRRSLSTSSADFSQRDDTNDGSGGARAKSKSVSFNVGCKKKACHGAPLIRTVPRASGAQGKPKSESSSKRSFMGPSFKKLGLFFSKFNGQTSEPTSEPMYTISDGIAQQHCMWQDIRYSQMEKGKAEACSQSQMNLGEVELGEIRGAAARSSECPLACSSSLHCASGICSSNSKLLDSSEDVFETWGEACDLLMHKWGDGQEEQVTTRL
Nature of the assay: Inhibition of mouse TRPC5 by FLIPR assay.

Short transient receptor potential channel 7, sequence (Q9WVC5 whole entry): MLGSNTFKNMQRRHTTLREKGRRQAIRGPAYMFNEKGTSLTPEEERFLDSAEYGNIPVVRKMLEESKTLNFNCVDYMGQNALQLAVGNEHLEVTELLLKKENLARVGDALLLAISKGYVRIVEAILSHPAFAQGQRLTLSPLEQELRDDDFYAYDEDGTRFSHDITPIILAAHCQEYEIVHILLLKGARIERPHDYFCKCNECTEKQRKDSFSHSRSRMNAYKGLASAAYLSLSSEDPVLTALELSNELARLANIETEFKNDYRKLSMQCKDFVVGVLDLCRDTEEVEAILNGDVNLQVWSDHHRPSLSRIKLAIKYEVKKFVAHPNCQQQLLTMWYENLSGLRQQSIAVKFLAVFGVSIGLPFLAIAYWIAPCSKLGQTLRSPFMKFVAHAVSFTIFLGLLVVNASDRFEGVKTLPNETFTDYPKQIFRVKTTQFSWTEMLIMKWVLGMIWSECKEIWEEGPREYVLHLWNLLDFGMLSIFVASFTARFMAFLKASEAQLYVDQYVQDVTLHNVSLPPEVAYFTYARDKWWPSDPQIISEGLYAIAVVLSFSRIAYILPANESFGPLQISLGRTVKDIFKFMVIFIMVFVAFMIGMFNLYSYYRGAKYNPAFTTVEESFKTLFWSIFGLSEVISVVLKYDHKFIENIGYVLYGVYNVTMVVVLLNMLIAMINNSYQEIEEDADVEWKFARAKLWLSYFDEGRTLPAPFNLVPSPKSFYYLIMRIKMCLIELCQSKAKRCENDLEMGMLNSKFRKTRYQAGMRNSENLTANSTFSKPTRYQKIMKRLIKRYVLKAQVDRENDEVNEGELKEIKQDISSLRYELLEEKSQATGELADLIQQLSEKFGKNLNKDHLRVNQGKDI
Transient receptor potential cation channel subfamily V member 4, sequence (Q9EPK8 whole entry): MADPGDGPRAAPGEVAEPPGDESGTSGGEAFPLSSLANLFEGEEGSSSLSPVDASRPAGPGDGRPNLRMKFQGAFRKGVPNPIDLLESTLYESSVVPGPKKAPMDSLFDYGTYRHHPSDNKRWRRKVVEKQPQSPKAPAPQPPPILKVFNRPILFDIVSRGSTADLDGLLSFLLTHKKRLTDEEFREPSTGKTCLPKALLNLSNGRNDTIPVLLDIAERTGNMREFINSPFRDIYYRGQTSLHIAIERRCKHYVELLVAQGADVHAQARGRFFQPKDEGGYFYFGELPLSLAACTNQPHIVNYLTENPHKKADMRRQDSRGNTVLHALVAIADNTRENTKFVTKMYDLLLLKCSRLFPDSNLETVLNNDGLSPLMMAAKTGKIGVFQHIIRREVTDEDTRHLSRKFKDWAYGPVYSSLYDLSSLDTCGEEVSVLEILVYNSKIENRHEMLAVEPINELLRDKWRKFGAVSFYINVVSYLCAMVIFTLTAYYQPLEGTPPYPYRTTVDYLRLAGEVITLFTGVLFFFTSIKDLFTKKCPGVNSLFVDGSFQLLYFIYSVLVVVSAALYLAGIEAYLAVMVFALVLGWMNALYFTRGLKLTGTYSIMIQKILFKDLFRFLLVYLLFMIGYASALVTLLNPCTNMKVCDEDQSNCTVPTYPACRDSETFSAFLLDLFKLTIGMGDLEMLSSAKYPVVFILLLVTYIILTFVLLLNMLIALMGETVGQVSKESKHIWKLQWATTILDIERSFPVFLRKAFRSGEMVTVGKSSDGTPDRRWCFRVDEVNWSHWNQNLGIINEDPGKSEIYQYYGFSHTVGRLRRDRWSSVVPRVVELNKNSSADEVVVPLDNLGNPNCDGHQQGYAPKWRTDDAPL

For orientation: IC50 means the concentration that gives 50% inhibition. Take `Clc1ccc(Cn2c(CN3CCCC3)nc3ccccc32)cc1` [CLEMIZOLE]: the half-maximal inhibitory concentration (IC50) in assay [1] was 26.5 µM; in assay [2], over 20 µM; in assay [3], over 20 µM; in assay [4] it was 6.4 µM.
For the compound `N#Cc1ccc(O[C@@H]2c3ccccc3C[C@H]2N2CCC[C@@H](N)C2)c(Cl)c1`, the IC50 in assay [5] is over 10 µM.

Values taken from ChEMBL document CHEMBL4376804, “Review of Transient Receptor Potential Canonical (TRPC5) Channel Modulators and Diseases” (J Med Chem, 2019).
